Our source for the IC50 values is patent US20170121322A1, “BET-PROTEIN INHIBITING 3,4-DIHYDROPYRIDO[2,3-B]PYRAZINONES WITH META-SUBSTITUTED AROMATIC AMINO- OR ETHER GROUPS” (Bayer Pharma Aktiengesellschaft, priority 2014, published 2017).

As usually defined, the IC50 is the concentration that gives 50% inhibition. Low readings indicate higher potency, high ones lower potency.

In the experiment the target is T1, BRD4 bromo domain 1 [BRD4(1)] (Homo sapiens, UniProt O60885).
T1 construct: N-terminally His6-tagged BRD4(1) (amino acids 67-152); made in house; host or cells: E. coli
Description: BRD4(1)/acetylated peptide H4 TR-FRET binding assay. As to conditions: His6-BRD4(1) (aa 67-152) vs acetylated histone H4 peptide. The source says: To assess the BRD4(1) binding strength of the substances described in this application, the ability thereof to inhibit the interaction between BRD4(1) and acetylated histone H4 in a dose-dependent manner was quantified.
For this purpose, a time-resolved fluorescence resonance energy transfer (TR-FRET) assay was used, which measures the binding between N-terminally His6-tagged BRD4(1) (amino acids 67-152) and a synthetic acetylated histone H4 (Ac-H4) peptide with sequence GRGK(Ac)GGK(Ac)GLGK(Ac)GGAK(Ac)RHGSGSK-biotin. The recombinant BRD4(1) protein produced in-house according to Filippakopoulos et al., Cell, 2012, 149:214-231 was expressed in E. coli and purified by means of (Ni-NTA) affinity and (Sephadex G-75) size exclusion chromatography. The Ac-H4 peptide can be purchased, for example, from Biosyntan (Berlin, Germany).
In the assay, typically 11 different concentrations of each substance (0.1 nM, 0.33 nM, 1.1 nM, 3.8 nM, 13 nM, 44 nM, 0.15 μM, 0.51 μM, 1.7 μM, 5.9 μM and 20 μM) were analysed as duplicates on the same microtitre plate. For this purpose, 100-fold concentrated solutions in DMSO were prepared by serial dilutions (1:3.4) of a 2 mM stock solution into a clear, 384-well microtitre plate (Greiner Bio-One, Frickenhausen, Germany). From this, 50 nl were transferred into a black test plate (Greiner Bio-One, Frickenhausen, Germany). The test was started by the addition of 2 μl of a 2.5-fold concentrated BRD4(1) solution (final concentration typically 10 nM in the 5 μl of reaction volume) in aqueous assay buffer [50 mM HEPES pH 7.5, 50 mM sodium chloride (NaCl), 0.25 mM CHAPS and 0.05% serum albumin (BSA)] to the substances in the test plate. This was followed by a 10-minute incubation step at 22° C. for the pre-equilibration of putative complexes between BRD4(1) and the substances. Subsequently, 3 μl of a solution of 1.67 times the concentration (in assay buffer) consisting of Ac-H4 peptide (83.5 nM) and TR-FRET detection reagents [16.7 nM anti-6His-XL665 and 3.34 nM streptavidin cryptate (both from Cisbio Bioassays, Codolet, France), and 668 mM potassium fluoride (KF)] were added.
The mixture was then incubated in the dark at 22° C. for one hour and then at 4° C. for at least 3 hours and for no longer than overnight. The formation of BRD4(1)/Ac-H4 complexes was determined by the measurement of the resonance energy transfer from the streptavidin-Eu cryptate to the anti-6His-XL665 antibody present in the reaction. For this purpose, the fluorescence emission was measured at 620 nm and 665 nm after excitation at 330-350 nm in a TR-FRET measuring instrument, for example a Rubystar or Pherastar (both from BMG Lab Technologies, Offenburg, Germany) or a Viewlux (Perkin-Elmer). The ratio of the emissions at 665 nm and at 622 nm was taken as an indicator of the amount of BRD4(1)/Ac-H4 complexes formed.
The data (ratios) obtained were normalized, with 0% inhibition corresponding to the mean from the measurements for a set of controls (typically 32 data points) in which all the reagents were present. In these, in place of test substances, 50 nl of DMSO (100%) were used. Inhibition of 100% corresponded to the mean from the measurements for a set of controls (typically 32 data points) in which all the reagents except BRD4(1) were present. The IC50 was determined by regression analysis based on a 4-parameter equation (minimum, maximum, IC50, Hill; Y=Max+(Min−Max)/(1+(X/IC50)Hill).
For orientation: TR-FRET usually uses a lanthanide donor and a delayed reading to cut background.
`CCOC(=O)N=S(C)(=O)c1cccc(Nc2ccc3c(n2)N(C2CCOCC2)[C@H](C)C(=O)N3C)c1` (mixture of isomers) [Example 10, Ethyl [(3-{[(3R)-1,3-dimethyl-2-oxo-4-(tetrahydro-2H-pyran-4-yl)-1,2,3,4-tetrahydropyrido[2,3-b]pyrazin-6-yl]amino}phenyl)(methyl)oxido-λ^6-sulphanylidene]carbamate] registered an IC50 of 3630 nM.
For `C[C@@H]1C(=O)N(C)c2ccc(Nc3cccc(S(C)(=O)=O)c3)nc2N1C1CCOCC1` [Example 1, (3R)-1,3-Dimethyl-6-{[3-(methylsulphonyl)phenyl]amino}-4-(tetrahydro-2H-pyran-4-yl)-3,4-dihydropyrido[2,3-b]pyrazin-2(1H)-one], the 50% inhibitory concentration (IC50) was found to be 75 nM.
`Cc1ccc(S(C)(=O)=O)cc1Nc1ccc2c(n1)N(C1CCOCC1)[C@H](C)C(=O)N2C` [Example 2, (3R)-1,3-Dimethyl-6-{[2-methyl-5-(methylsulphonyl)phenyl]amino}-4-(tetrahydro-2H-pyran-4-yl)-3,4-dihydropyrido[2,3-b]pyrazin-2(1H)-one] yielded an IC50 of 83 nM.
`COc1ccc(S(C)(=O)=O)cc1Nc1ccc2c(n1)N(C1CCOCC1)[C@H](C)C(=O)N2C` [Example 3, (3R)-6-{[2-Methoxy-5-(methylsulphonyl)phenyl]amino}-1,3-dimethyl-4-(tetrahydro-2H-pyran-4-yl)-3,4-dihydropyrido[2,3-b]pyrazin-2(1H)-one] registered an IC50 of 79 nM.
`C[C@@H]1C(=O)N(C)c2ccc(Nc3ccc4c(c3)S(=O)(=O)CC4)nc2N1C1CCOCC1` [Example 4, (3R)-6-[(1,1-Dioxido-2,3-dihydro-1-benzothiophen-6-yl)amino]-1,3-dimethyl-4-(tetrahydro-2H-pyran-4-yl)-3,4-dihydropyrido[2,3-b]pyrazin-2(1H)-one] showed an IC50 of 93 nM.
`C[C@@H]1C(=O)N(C)c2ccc(Nc3cccc(S(C)(=O)=O)c3)nc2N1C1CCCCCC1` [Example 5, (3R)-4-Cycloheptyl-1,3-dimethyl-6-{[3-(methylsulphonyl)phenyl]amino}-3,4-dihydropyrido[2,3-b]pyrazin-2(1H)-one] registered an IC50 of 152 nM.
For the compound `C[C@@H]1C(=O)N(C)c2ccc(Nc3cccc(S(=O)(=O)C4CC4)c3)nc2N1C1CCOCC1` [Example 6, (3R)-6-{[3-(Cyclopropylsulphonyl)phenyl]amino}-1,3-dimethyl-4-(tetrahydro-2H-pyran-4-yl)-3,4-dihydropyrido[2,3-b]pyrazin-2(1H)-one], the IC50 was 24 nM.
With `CC(C)S(=O)(=O)c1cccc(Nc2ccc3c(n2)N(C2CCOCC2)[C@H](C)C(=O)N3C)c1` [Example 7, (3R)-6-{[3-(Isopropylsulphonyl)phenyl]amino}-1,3-dimethyl-4-(tetrahydro-2H-pyran-4-yl)-3,4-dihydropyrido[2,3-b]pyrazin-2(1H)-one] the figure was 28 nM; with `COc1ccc(S(=O)(=O)C2CC2)cc1Nc1ccc2c(n1)N(C1CCOCC1)[C@H](C)C(=O)N2C` [Example 8, (3R)-6-{[5-(Cyclopropylsulphonyl)-2-methoxyphenyl]amino}-1,3-dimethyl-4-(tetrahydro-2H-pyran-4-yl)-3,4-dihydropyrido[2,3-b]pyrazin-2(1H)-one], 23 nM; with `COc1ccc(S(=O)(=O)C(C)C)cc1Nc1ccc2c(n1)N(C1CCOCC1)[C@H](C)C(=O)N2C` [Example 9, (3R)-6-{[5-(Isopropylsulphonyl)-2-methoxyphenyl]amino}-1,3-dimethyl-4-(tetrahydro-2H-pyran-4-yl)-3,4-dihydropyrido[2,3-b]pyrazin-2(1H)-one], 25 nM.
In turn, `C[C@@H]1C(=O)N(C)c2ccc(Nc3cccc(S(C)(=O)=O)c3)nc2N1C1CCN(C)CC1` [Example 11, (3R)-1,3-Dimethyl-4-(1-methylpiperidin-4-yl)-6-{[3-(methylsulphonyl)phenyl]amino}-3,4-dihydropyrido[2,3-b]pyrazin-2(1H)-one] returned an IC50 of 94 nM.
For `COc1ccc(S(=O)(=O)C2CC2)cc1Nc1ccc2c(n1)N(C1CCN(C)CC1)[C@H](C)C(=O)N2C` [Example 12, (3R)-6-{[5-(Cyclopropylsulphonyl)-2-methoxyphenyl]amino}-1,3-dimethyl-4-(1-methylpiperidin-4-yl)-3,4-dihydropyrido[2,3-b]pyrazin-2(1H)-one], the IC50 was determined as 19 nM. This IC50 is about 4.9-fold lower than that of the compound before.
With `COc1ccc(S(=O)(=O)C(C)C)cc1Nc1ccc2c(n1)N(C1CCN(C)CC1)[C@H](C)C(=O)N2C` [Example 13, (3R)-6-{[5-(Isopropylsulphonyl)-2-methoxyphenyl]amino}-1,3-dimethyl-4-(1-methylpiperidin-4-yl)-3,4-dihydropyrido[2,3-b]pyrazin-2(1H)-one] the figure was 16 nM.
With `COc1ccc(S(C)(=O)=O)cc1Nc1ccc2c(n1)N(C(C)C)[C@H](C)C(=O)N2C` [Example 14, (3R)-4-Isopropyl-6-{[2-methoxy-5-(methylsulphonyl)phenyl]amino}-1,3-dimethyl-3,4-dihydropyrido[2,3-b]pyrazin-2(1H)-one] the figure was 173 nM.
Turning to `COc1ccc(S(=O)(=O)C2CC2)cc1Nc1ccc2c(n1)N(C(C)C)[C@H](C)C(=O)N2C` [Example 15, (3R)-6-{[5-(Cyclopropylsulphonyl)-2-methoxyphenyl]amino}-4-isopropyl-1,3-dimethyl-3,4-dihydropyrido[2,3-b]pyrazin-2(1H)-one], the IC50 stood at 73 nM.
`COc1ccc(S(=O)(=O)C(C)C)cc1Nc1ccc2c(n1)N(C(C)C)[C@H](C)C(=O)N2C` [Example 16, (3R)-4-Isopropyl-6-{[5-(isopropylsulphonyl)-2-methoxyphenyl]amino}-1,3-dimethyl-3,4-dihydropyrido[2,3-b]pyrazin-2(1H)-one] yielded an IC50 of 88 nM. This IC50 and that of the compound before are within 1.5-fold of each other.
Turning to `CC1C(=O)N(C)c2ccc(Nc3cccc(S(C)(=O)=O)c3)nc2N1c1ccccc1` (stereo not drawn) [Example 17, 1,3-Dimethyl-6-{[3-(methylsulphonyl)phenyl]amino}-4-phenyl-3,4-dihydropyrido[2,3-b]pyrazin-2(1H)-one], the IC50 was 303 nM.
As for `CC(C)S(=O)(=O)c1cccc(Nc2ccc3c(n2)N(C2CCN(C)CC2)[C@H](C)C(=O)N3C)c1` [Example 19, (3R)-6-{[3-(Isopropylsulphonyl)phenyl]amino}-1,3-dimethyl-4-(1-methylpiperidin-4-yl)-3,4-dihydropyrido[2,3-b]pyrazin-2(1H)-one], the IC50 stood at 15 nM.
Turning to `CC(C)S(=O)(=O)c1ccc(OC(F)(F)F)c(Nc2ccc3c(n2)N(C2CCN(C)CC2)[C@H](C)C(=O)N3C)c1` [Example 20, (3R)-6-{[5-(Isopropylsulphonyl)-2-(trifluoromethoxy)phenyl]amino}-1,3-dimethyl-4-(1-methylpiperidin-4-yl)-3,4-dihydropyrido[2,3-b]pyrazin-2(1H)-one], the IC50 was found to be 18 nM.
Compound `COc1ccc(S(=O)(=O)C(F)(F)F)cc1Nc1ccc2c(n1)N(C1CCN(C)CC1)[C@H](C)C(=O)N2C` [Example 21, (3R)-6-({2-Methoxy-5-[(trifluoromethyl)sulphonyl]phenyl}amino)-1,3-dimethyl-4-(1-methylpiperidin-4-yl)-3,4-dihydropyrido[2,3-b]pyrazin-2(1H)-one] came in with an IC50 of 23 nM. The IC50 values of the last two compounds are within 1.5-fold of each other.
To `COc1ccc(S(=O)(=O)C2CCOCC2)cc1Nc1ccc2c(n1)N(C1CCN(C)CC1)[C@H](C)C(=O)N2C` [Example 22, (3R)-6-{[2-Methoxy-5-(tetrahydro-2H-pyran-4-ylsulphonyl)phenyl]amino}-1,3-dimethyl-4-(1-methylpiperidin-4-yl)-3,4-dihydropyrido[2,3-b]pyrazin-2(1H)-one] belongs 23 nM.
